This assay relates to bilateral neovascular AMD with occult choroidal neovascularization. Briefly: Treatment of a patient with bilateral neovascular AMD with occult choroidal neovascularization. The note with it: after intravitreal injection to both eyes. Type of assay: in vivo, human.

With pegaptanib, under “20/80 before”, the “vision, left eye” value is given as 20/100. Further, the “vision, right eye” value (CF at six feet before) is on record as “CF at six feet”.

The record behind these values is patent US20110212047A1, “Polymer Therapy for the Treatment of Chronic Microvascular Diseases” (Synth Rx, Inc., priority 2007, published 2011).
